Measurements: patent publication US8957096B2, “Herbicidally active oxime-ether-substituted benzoylamides” (Bayer Intellectual Property GmbH, priority 2011, dated 2015)

Key:
Format in all cases: in vivo
Abuthilon theophrasti [1] = assay: Post-emergence herbicidal action against harmful plants; settings: 504 h, application rate 80 g/ha, assessed visually after about 3 weeks vs untreated controls, read-out: herbicidal action in percent (%)
Method: (§1) 2. Post-Emergence Herbicidal Action Against Harmful Plants Seeds of monocotyledonous and dicotyledonous weed and crop plants are placed in sandy loam in wood-fiber pots, covered with soil and cultivated in a greenhouse under good growth conditions. 2 to 3 weeks after sowing, the test plants are treated at the one-leaf stage. The inventive compounds formulated in the form of wettable powders (WP) or as emulsion concentrates (EC) are then sprayed onto the green parts of the plants as an aqueous suspension or emulsion at a water application rate of 600 to 800 l/ha (converted) with addition of 0.2% wetting agent. After the test plants have been left to stand in the greenhouse under optimal growth conditions for about 3 weeks, the action of the formulations is assessed visually in comparison to untreated controls (herbicidal action in percent (%): 100% activity=the plants have died, 0% activity=like control plants). Here, the compounds Nos. 1-001, 1-002, 1-004, 1-005, 1-007, 1-008, 1-014, 1-015, 1-017, 1-018, 1-020, 1-033, 1-040, 1-041, 1-043, 1-044, 1-046, 1-047, 1-053, 1-054, 1-056, 1-057, 1-059, 1-060, 1-079, 1-080, 1-082, 1-083, 1-086, 1-092, 1-093, 1-095, 1-096, 1-098, 1-099, 2-015, 3-014, 3-015, 3-017, 3-018, 3-020, 5-082, 5-095, 6-017, 7-017 and 8-014 each show, at an application rate of 80 g/ha, an activity of at least 80% against Abuthilon theophrasti, Amaranthus retroflexus and Stellaria media. The compounds Nos. 4-092, 4-093, 5-004, 5-017, 5-043 and 5-056 each show, at an application rate of 80 g/ha, an activity of at least 80% against Echinocloa crus galli, Pharbitis purpureum and Stellaria media.

Stellaria media [2] = assay: as above; settings: 504 h, application rate 80 g/ha, assessed visually after about 3 weeks vs untreated controls, read-out: herbicidal action in percent (%)
Method: as §1

Amaranthus retroflexus [3] = assay: as above; settings: 504 h, application rate 80 g/ha, assessed visually after about 3 weeks vs untreated controls, read-out: herbicidal action in percent (%)
Method: as §1

Abuthilon theophrasti [4] = assay: Pre-emergence herbicidal action against harmful plants; settings: 504 h, application rate 320 g/ha, assessed visually after 3 weeks vs untreated controls, read-out: herbicidal activity in percent (%)
Text: (§2) 1. Pre-Emergence Herbicidal Action Against Harmful Plants Seeds of monocotyledonous and dicotyledonous weed plants and crop plants are placed in wood-fiber pots in sandy loam and covered with soil. The compounds according to the invention, formulated in the form of wettable powders (WP) or as emulsion concentrates (EC), are then applied as aqueous suspension or emulsion at a water application rate of 600 to 800 l/ha (converted) with the addition of 0.2% of wetting agent to the surface of the covering soil. After the treatment, the pots are placed in a greenhouse and kept under good growth conditions for the test plants. The damage to the test plants is assessed visually after a test period of 3 weeks by comparison with untreated controls (herbicidal activity in percent (%): 100% activity=the plants have died, 0% activity=like control plants). Here, the compounds Nos. 1-002, 1-004, 1-007, 1-008, 1-043, 1-044, 1-046, 1-047, 1-060, 1-079, 1-080, 1-082, 1-083, 1-085, 1-095, 1-096, 1-098, 1-099, 1-059, 2-015, 3-015, 3-018, 3-020, 4-001, 4-118, 5-004, 5-017, 5-043, 5-056, 5-082, 5-095, 6-017, 7-017, 8-017 and 8-014, for example, each show, at an application rate of 320 g/ha, an activity of at least 80% against Abuthilon theophrasti and Amaranthus retroflexus. The compounds Nos. 1-001, 1-005, 1-014, 1-015, 1-017, 1-018, 1-020, 1-033, 1-040, 1-041, 1-053, 1-054, 1-056, 1-057, 1-092, 1-093, 3-014, 3-015, 8-014, 8-017 and 8-015 each show, at an application rate of 320 g/ha, an activity of at least 80% against Setaria viridis and Stellaria media. The compounds Nos. 3-017, 4-092 and 6-004 show, at an application rate of 320 g/ha, an activity of at least 80% against Amaranthus retroflexus and Veronica persica.

Amaranthus retroflexus [5] = assay: as above; settings: 504 h, application rate 320 g/ha, assessed visually after 3 weeks vs untreated controls, read-out: herbicidal activity in percent (%)
Text: as §2

Setaria viridis = assay: as above; settings: 504 h, application rate 320 g/ha, assessed visually after 3 weeks vs untreated controls, read-out: herbicidal activity in percent (%)
Text: as §2

Stellaria media [6] = assay: as above; settings: 504 h, application rate 320 g/ha, assessed visually after 3 weeks vs untreated controls, read-out: herbicidal activity in percent (%)
Text: as §2

CCO/N=C/c1c(S(C)(=O)=O)ccc(C(=O)Nc2ncnn2C)c1Cl [2-015]
≥ 80%: pest or weed control at 80 g/ha (Abuthilon theophrasti [1]) | pest or weed control at 80 g/ha (Stellaria media [2]) | pest or weed control at 80 g/ha (Amaranthus retroflexus [3]) | pest or weed control at 320 g/ha (Abuthilon theophrasti [4]) | pest or weed control at 320 g/ha (Amaranthus retroflexus [5])

CO/N=C/c1c(Cl)ccc(C(=O)Nc2nnc(C)o2)c1Cl [4-001]
≥ 80%: pest or weed control at 320 g/ha (Abuthilon theophrasti [4]) | pest or weed control at 320 g/ha (Amaranthus retroflexus [5])

CC(C)=NOCc1c(Cl)ccc(C(=O)Nc2nnnn2C)c1Cl [5-004]
≥ 80%: pest or weed control at 80 g/ha (Stellaria media [2]) | pest or weed control at 320 g/ha (Abuthilon theophrasti [4]) | pest or weed control at 320 g/ha (Amaranthus retroflexus [5])

CC(C)=NOCc1c(S(C)(=O)=O)ccc(C(=O)Nc2nnnn2C)c1Cl [5-017]
≥ 80%: pest or weed control at 80 g/ha (Stellaria media [2]) | pest or weed control at 320 g/ha (Abuthilon theophrasti [4]) | pest or weed control at 320 g/ha (Amaranthus retroflexus [5])

CCn1nnnc1NC(=O)c1ccc(Cl)c(CON=C(C)C)c1Cl [5-043]
≥ 80%: pest or weed control at 80 g/ha (Stellaria media [2]) | pest or weed control at 320 g/ha (Abuthilon theophrasti [4]) | pest or weed control at 320 g/ha (Amaranthus retroflexus [5])

CCn1nnnc1NC(=O)c1ccc(S(C)(=O)=O)c(CON=C(C)C)c1Cl [5-056]
≥ 80%: pest or weed control at 80 g/ha (Stellaria media [2]) | pest or weed control at 320 g/ha (Abuthilon theophrasti [4]) | pest or weed control at 320 g/ha (Amaranthus retroflexus [5])

CCCn1nnnc1NC(=O)c1ccc(Cl)c(CON=C(C)C)c1Cl [5-082]
≥ 80%: pest or weed control at 80 g/ha (Abuthilon theophrasti [1]) | pest or weed control at 80 g/ha (Stellaria media [2]) | pest or weed control at 80 g/ha (Amaranthus retroflexus [3]) | pest or weed control at 320 g/ha (Abuthilon theophrasti [4]) | pest or weed control at 320 g/ha (Amaranthus retroflexus [5])

CCCn1nnnc1NC(=O)c1ccc(S(C)(=O)=O)c(CON=C(C)C)c1Cl [5-095]
≥ 80%: pest or weed control at 80 g/ha (Abuthilon theophrasti [1]) | pest or weed control at 80 g/ha (Stellaria media [2]) | pest or weed control at 80 g/ha (Amaranthus retroflexus [3]) | pest or weed control at 320 g/ha (Abuthilon theophrasti [4]) | pest or weed control at 320 g/ha (Amaranthus retroflexus [5])

CC(C)=NOCc1c(Cl)ccc(C(=O)Nc2ncnn2C)c1Cl [6-004]
≥ 80%: pest or weed control at 320 g/ha (Amaranthus retroflexus [5])

CC(C)=NOCc1c(S(C)(=O)=O)ccc(C(=O)Nc2ncnn2C)c1Cl [6-017, 2-chloro-4-(methylsulfonyl)-N-(1-methyl-1H-1,2,4-triazol-5-yl)-3-{[(propan-2-ylideneamino)oxy]methyl}benzamide]
≥ 80%: pest or weed control at 80 g/ha (Abuthilon theophrasti [1]) | pest or weed control at 80 g/ha (Stellaria media [2]) | pest or weed control at 80 g/ha (Amaranthus retroflexus [3]) | pest or weed control at 320 g/ha (Abuthilon theophrasti [4]) | pest or weed control at 320 g/ha (Amaranthus retroflexus [5])

CC(C)=NOCc1c(S(C)(=O)=O)ccc(C(=O)Nc2nonc2C)c1Cl [7-017]
≥ 80%: pest or weed control at 80 g/ha (Abuthilon theophrasti [1]) | pest or weed control at 80 g/ha (Stellaria media [2]) | pest or weed control at 80 g/ha (Amaranthus retroflexus [3]) | pest or weed control at 320 g/ha (Abuthilon theophrasti [4]) | pest or weed control at 320 g/ha (Amaranthus retroflexus [5])

C=NOCc1c(S(C)(=O)=O)ccc(C(=O)Nc2nnc(C)o2)c1Cl [8-014]
≥ 80%: pest or weed control at 80 g/ha (Abuthilon theophrasti [1]) | pest or weed control at 80 g/ha (Stellaria media [2]) | pest or weed control at 80 g/ha (Amaranthus retroflexus [3]) | pest or weed control at 320 g/ha (Abuthilon theophrasti [4]) | pest or weed control at 320 g/ha (Setaria viridis) | pest or weed control at 320 g/ha (Stellaria media [6]) | pest or weed control at 320 g/ha (Amaranthus retroflexus [5])

CC=NOCc1c(S(C)(=O)=O)ccc(C(=O)Nc2nnc(C)o2)c1Cl [8-015]
≥ 80%: pest or weed control at 320 g/ha (Setaria viridis) | pest or weed control at 320 g/ha (Stellaria media [6])

CC(C)=NOCc1c(S(C)(=O)=O)ccc(C(=O)Nc2nnc(C)o2)c1Cl [8-017]
≥ 80%: pest or weed control at 320 g/ha (Abuthilon theophrasti [4]) | pest or weed control at 320 g/ha (Setaria viridis) | pest or weed control at 320 g/ha (Stellaria media [6]) | pest or weed control at 320 g/ha (Amaranthus retroflexus [5])
